Experiments:
[1] = target: NA of A/Osaka/180/2009 (O180r; NA H274Y) (Influenza A virus, UniProt C3W5S3, H275Y); assay type: biochemical, 2009 pandemic influenza A (H1N1) virus
[2] = target: NA of A/Vietnam/HN32060/2009 (VN32060r; NA H274Y) (Influenza A virus, UniProt C3W5S3, H275Y); assay type: biochemical, 2009 pandemic influenza A (H1N1) virus

Question: With `CC(=O)N[C@H]1[C@H]([C@H](O)[C@H](O)CO)OC(C(=O)O)=C[C@@H]1N=C(N)N` [Zanamivir] as the molecule, how does the “IC50 value of O180r compared with O164s” value [1] read?
Answer: comparable

Question: What about the “IC50 value of VN32060r compared with VN9727s” value [2] of the same molecule?
Answer: comparable

From PMC2928817 (PLoS Pathogens, 2010)
